Series [1] concerns Trypanosoma brucei brucei. The series is described as follows: Antitrypanosomal activity against bloodstream form of Trypanosoma brucei brucei. It is filed as functional, organism-based.
The subject of series [2] is Leishmania amazonensis. The series is described as follows: Antileishmanial activity against Leishmania amazonensis infected in mouse visceral leishmaniasis model assessed as decrease in parasitemia level in liver at 10 mg/kg/day, ip administered 5 times. It is filed as functional. On the set-up: scale not given: the % may be the effect or the level left. As to conditions: route intraperitoneal.

For series [3], the system named is Leishmania amazonensis. The series is described as follows: Antileishmanial activity against Leishmania amazonensis infected in mouse visceral leishmaniasis model assessed as decrease in parasitemia level in liver at 1 mg/kg/day, ip administered 5 times. As to conditions: route intraperitoneal. It is filed as functional. Also on record: scale not given: the % may be the effect or the level left.

Series [4] concerns Plasmodium falciparum. Nature of the series: Antimalarial activity against Plasmodium falciparum by flow cytometry. The class given is functional, organism-based.
The test system of series [5] is Leishmania amazonensis. The series is described as follows: Antileishmanial activity against intracellular Leishmania amazonensis infected in mouse peritoneal macrophages. It is filed as functional, organism-based.
Series [6] can be described thus: Selectivity index, ratio of IC50 for african green monkey Vero cells to IC50 for bloodstream form of Trypanosoma brucei brucei. It is filed as toxicity, cell-based. As to conditions: read-out: Ratio IC50.
The test system of series [7] is Vero. The series is described as follows: Cytotoxicity against african green monkey Vero cells. It is filed as cell-based. As to conditions: Chlorocebus sabaeus.
Series [8] concerns Mus musculus. Nature of the series: Toxicity in Leishmania amazonensis infected mouse visceral leishmaniasis model at > 1 mg/kg/day, ip. As to conditions: in vivo. On the set-up: route intraperitoneal. The class given is organism-based.

Where a name gives a salt, the structure may show the parent alone.

The values that follow come from ChEMBL document CHEMBL1770093, “Potent antiprotozoal activity of a novel semi-synthetic berberine derivative” (Bioorg Med Chem Lett, 2011).

On to `Cc1ccc(C(=O)Nc2ccc(S(=O)(=O)O)c3cc(S(=O)(=O)O)cc(S(=O)(=O)O)c23)cc1NC(=O)c1cccc(NC(=O)Nc2cccc(C(=O)Nc3cc(C(=O)Nc4ccc(S(=O)(=O)O)c5cc(S(=O)(=O)O)cc(S(=O)(=O)O)c45)ccc3C)c2)c1` [SURAMIN], for which the IC50 in series [1] came out at 0.25 µM.

With `CCCCCCCCCCCCCCCCOP(=O)([O-])OCC[N+](C)(C)C` [MILTEFOSINE], in series [2], the Activity was found to be 98%.

For the compound `CCC1(CC)c2c(ccc(OC)c2OC)C(=O)c2c3cc4c(cc3cc[n+]21)OCO4.[Cl-]`, the figures for the Activity in series [3] and in series [8] were 47% and “Toxic”, respectively. Further, the IC50 in series [4] was 0.036 µM; in series [5], 0.18 µM; in series [7] it was 91 µM; in series [1], 0.0091 µM. Moreover, in series [6], the selectivity ratio is 10000.

For the compound `COc1ccc2cc3[n+](cc2c1OC)CCc1cc2c(cc1-3)OCO2` [BERBERINE SULFATE], the IC50 in series [4] came out at 0.8 µM; in series [5] it was 17 µM; in series [1], 1.1 µM.

As for `C[C@@H]1[C@H](O)[C@@H](C)/C=C/C=C/C=C/C=C/C=C/C=C/C=C/[C@H](O[C@@H]2O[C@H](C)[C@@H](O)[C@H](N)[C@@H]2O)C[C@@H]2O[C@](O)(C[C@@H](O)C[C@@H](O)[C@H](O)CC[C@@H](O)C[C@@H](O)CC(=O)O[C@H]1C)C[C@H](O)[C@H]2C(=O)O` [AMPHOTERICIN B], in series [5], half-maximal inhibition (IC50) was put at 0.12 µM.
